Measurements taken from ChEMBL document CHEMBL4477225, “Development of a cell viability assay to assess drug metabolite structure-toxicity relationships” (Bioorg Med Chem Lett, 2016).

Assays:
Conditions in all cases: recombinant enzyme
[1] = target: T1, Cytochrome P450 2D6 (Homo sapiens, UniProt P10635); test: Drug activation in human Hep3B cells assessed as human CYP2D6-mediated drug metabolism-induced cytotoxicity measured as decrease in cell viability at 21.3 uM pre-incubated with BSO for 18 hrs followed by incubation with compound for 3 hrs in presence of NADPH measured after 24 hrs in absence of compound, CYP3A4 and NADPH by cell titer-glo luminescence assay relative to BSO alone; type: ADME, cell-based
[2] = target: T2, Cytochrome P450 3A4 (Homo sapiens, UniProt P08684); test: Drug activation in human Hep3B cells assessed as human CYP3A4-mediated drug metabolism-induced cytotoxicity measured as decrease in cell viability at 74.4 uM pre-incubated with BSO for 18 hrs followed by incubation with compound for 3 hrs in presence of NADPH measured after 24 hrs in absence of compound, CYP3A4 and NADPH by cell titer-glo luminescence assay relative to BSO alone; type: ADME, cell-based
[3] = target: T3, Cytochrome P450 2C9 (Homo sapiens, UniProt P11712); test: Drug activation in human Hep3B cells assessed as human CYP2C9-mediated drug metabolism-induced cytotoxicity measured as decrease in cell viability at 51.1 uM pre-incubated with BSO for 18 hrs followed by incubation with compound for 3 hrs in presence of NADPH measured after 24 hrs in absence of compound, CYP3A4 and NADPH by cell titer-glo luminescence assay relative to BSO alone; type: ADME, cell-based
[4] = target: T1, Cytochrome P450 2D6; test: Drug activation in human Hep3B cells assessed as human CYP2D6-mediated drug metabolism-induced cytotoxicity measured as decrease in cell viability at 80.4 uM pre-incubated with BSO for 18 hrs followed by incubation with compound for 3 hrs in presence of NADPH measured after 24 hrs in absence of compound, CYP3A4 and NADPH by cell titer-glo luminescence assay relative to BSO alone; type: ADME, cell-based
[5] = target: T3, Cytochrome P450 2C9; test: Drug activation in human Hep3B cells assessed as human CYP2C9-mediated drug metabolism-induced cytotoxicity measured as decrease in cell viability at 70.1 uM pre-incubated with BSO for 18 hrs followed by incubation with compound for 3 hrs in presence of NADPH measured after 24 hrs in absence of compound, CYP3A4 and NADPH by cell titer-glo luminescence assay relative to BSO alone; type: ADME, cell-based
[6] = target: T2, Cytochrome P450 3A4; test: Drug activation in human Hep3B cells assessed as human CYP3A4-mediated drug metabolism-induced cytotoxicity measured as decrease in cell viability at 68 uM pre-incubated with BSO for 18 hrs followed by incubation with compound for 3 hrs in presence of NADPH measured after 24 hrs in absence of compound, CYP3A4 and NADPH by cell titer-glo luminescence assay relative to BSO alone; type: ADME, cell-based
[7] = target: T1, Cytochrome P450 2D6; test: Drug activation in human Hep3B cells assessed as human CYP2D6-mediated drug metabolism-induced cytotoxicity measured as decrease in cell viability at 193.1 uM pre-incubated with BSO for 18 hrs followed by incubation with compound for 3 hrs in presence of NADPH measured after 24 hrs in absence of compound, CYP3A4 and NADPH by cell titer-glo luminescence assay relative to BSO alone; type: ADME, cell-based
[8] = target: T2, Cytochrome P450 3A4; test: Drug activation in human Hep3B cells assessed as human CYP3A4-mediated drug metabolism-induced cytotoxicity measured as decrease in cell viability at 83.8 uM pre-incubated with BSO for 18 hrs followed by incubation with compound for 3 hrs in presence of NADPH measured after 24 hrs in absence of compound, CYP3A4 and NADPH by cell titer-glo luminescence assay relative to BSO alone; type: ADME, cell-based
[9] = target: T3, Cytochrome P450 2C9; test: Drug activation in human Hep3B cells assessed as human CYP2C9-mediated drug metabolism-induced cytotoxicity measured as decrease in cell viability at 300 uM pre-incubated with BSO for 18 hrs followed by incubation with compound for 3 hrs in presence of NADPH measured after 24 hrs in absence of compound, CYP3A4 and NADPH by cell titer-glo luminescence assay relative to BSO alone
[10] = target: T1, Cytochrome P450 2D6; test: Drug activation in human Hep3B cells assessed as human CYP2D6-mediated drug metabolism-induced cytotoxicity measured as decrease in cell viability at 12.9 uM pre-incubated with BSO for 18 hrs followed by incubation with compound for 3 hrs in presence of NADPH measured after 24 hrs in absence of compound, CYP3A4 and NADPH by cell titer-glo luminescence assay relative to BSO alone; type: ADME, cell-based
[11] = target: T2, Cytochrome P450 3A4; test: Drug activation in human Hep3B cells assessed as human CYP3A4-mediated drug metabolism-induced cytotoxicity measured as decrease in cell viability at 8.7 uM pre-incubated with BSO for 18 hrs followed by incubation with compound for 3 hrs in presence of NADPH measured after 24 hrs in absence of compound, CYP3A4 and NADPH by cell titer-glo luminescence assay relative to BSO alone; type: ADME, cell-based
[12] = target: T3, Cytochrome P450 2C9; test: Drug activation in human Hep3B cells assessed as human CYP2C9-mediated drug metabolism-induced cytotoxicity measured as decrease in cell viability at 36.8 uM pre-incubated with BSO for 18 hrs followed by incubation with compound for 3 hrs in presence of NADPH measured after 24 hrs in absence of compound, CYP3A4 and NADPH by cell titer-glo luminescence assay relative to BSO alone; type: ADME, cell-based
[13] = target: T1, Cytochrome P450 2D6; test: Drug activation in human Hep3B cells assessed as human CYP2D6-mediated drug metabolism-induced cytotoxicity measured as decrease in cell viability at 44.4 uM pre-incubated with BSO for 18 hrs followed by incubation with compound for 3 hrs in presence of NADPH measured after 24 hrs in absence of compound, CYP3A4 and NADPH by cell titer-glo luminescence assay relative to BSO alone; type: ADME, cell-based
[14] = target: T3, Cytochrome P450 2C9; test: Drug activation in human Hep3B cells assessed as human CYP2C9-mediated drug metabolism-induced cytotoxicity measured as decrease in cell viability at 12.1 uM pre-incubated with BSO for 18 hrs followed by incubation with compound for 3 hrs in presence of NADPH measured after 24 hrs in absence of compound, CYP3A4 and NADPH by cell titer-glo luminescence assay relative to BSO alone; type: ADME, cell-based
[15] = target: T2, Cytochrome P450 3A4; test: Drug activation in human Hep3B cells assessed as human CYP3A4-mediated drug metabolism-induced cytotoxicity measured as decrease in cell viability at […] pre-incubated with BSO for 18 hrs followed by incubation with compound for 3 hrs in presence of NADPH measured after 24 hrs in absence of compound, CYP3A4 and NADPH by cell titer-glo luminescence assay relative to BSO alone; type: ADME, cell-based
[16] = target: T1, Cytochrome P450 2D6; test: Drug activation in human Hep3B cells assessed as human CYP2D6-mediated drug metabolism-induced cytotoxicity measured as decrease in cell viability at 3.2 uM pre-incubated with BSO for 18 hrs followed by incubation with compound for 3 hrs in presence of NADPH measured after 24 hrs in absence of compound, CYP3A4 and NADPH by cell titer-glo luminescence assay relative to BSO alone; type: ADME, cell-based
[17] = target: T2, Cytochrome P450 3A4; test: Drug activation in human Hep3B cells assessed as human CYP3A4-mediated drug metabolism-induced cytotoxicity measured as decrease in cell viability at 137.9 uM pre-incubated with BSO for 18 hrs followed by incubation with compound for 3 hrs in presence of NADPH measured after 24 hrs in absence of compound, CYP3A4 and NADPH by cell titer-glo luminescence assay relative to BSO alone; type: ADME, cell-based
[18] = target: T1, Cytochrome P450 2D6; test: Drug activation in human Hep3B cells assessed as human CYP2D6-mediated drug metabolism-induced cytotoxicity measured as decrease in cell viability at 114.4 uM pre-incubated with BSO for 18 hrs followed by incubation with compound for 3 hrs in presence of NADPH measured after 24 hrs in absence of compound, CYP3A4 and NADPH by cell titer-glo luminescence assay relative to BSO alone; type: ADME, cell-based

T3 sequence (P11712 whole entry): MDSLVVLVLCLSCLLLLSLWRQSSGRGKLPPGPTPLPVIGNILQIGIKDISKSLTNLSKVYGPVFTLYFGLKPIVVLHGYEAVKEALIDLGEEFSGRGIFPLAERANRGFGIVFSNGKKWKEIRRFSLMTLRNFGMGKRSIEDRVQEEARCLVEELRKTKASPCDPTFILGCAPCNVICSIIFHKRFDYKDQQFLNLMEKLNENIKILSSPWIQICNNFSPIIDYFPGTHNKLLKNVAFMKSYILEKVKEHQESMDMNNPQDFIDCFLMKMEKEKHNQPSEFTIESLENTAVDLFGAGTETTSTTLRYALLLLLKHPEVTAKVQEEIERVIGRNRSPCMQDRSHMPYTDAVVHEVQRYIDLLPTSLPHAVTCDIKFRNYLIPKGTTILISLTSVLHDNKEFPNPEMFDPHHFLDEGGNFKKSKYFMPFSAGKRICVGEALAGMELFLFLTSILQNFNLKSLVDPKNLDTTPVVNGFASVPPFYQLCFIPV
T2 sequence (P08684 whole entry): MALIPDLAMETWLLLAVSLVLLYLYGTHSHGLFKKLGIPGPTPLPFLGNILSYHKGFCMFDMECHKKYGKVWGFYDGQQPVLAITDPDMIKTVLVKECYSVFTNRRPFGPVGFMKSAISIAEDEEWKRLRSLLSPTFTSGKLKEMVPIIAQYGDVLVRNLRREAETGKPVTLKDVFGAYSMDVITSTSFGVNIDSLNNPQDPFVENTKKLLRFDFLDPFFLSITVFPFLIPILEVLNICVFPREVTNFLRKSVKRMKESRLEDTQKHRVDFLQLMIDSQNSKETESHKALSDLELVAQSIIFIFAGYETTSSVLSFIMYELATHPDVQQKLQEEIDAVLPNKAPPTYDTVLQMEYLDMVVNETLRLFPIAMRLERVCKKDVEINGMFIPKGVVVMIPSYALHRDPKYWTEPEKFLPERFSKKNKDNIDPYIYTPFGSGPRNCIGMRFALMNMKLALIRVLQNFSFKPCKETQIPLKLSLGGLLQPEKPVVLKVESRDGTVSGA
T1 sequence (P10635 whole entry): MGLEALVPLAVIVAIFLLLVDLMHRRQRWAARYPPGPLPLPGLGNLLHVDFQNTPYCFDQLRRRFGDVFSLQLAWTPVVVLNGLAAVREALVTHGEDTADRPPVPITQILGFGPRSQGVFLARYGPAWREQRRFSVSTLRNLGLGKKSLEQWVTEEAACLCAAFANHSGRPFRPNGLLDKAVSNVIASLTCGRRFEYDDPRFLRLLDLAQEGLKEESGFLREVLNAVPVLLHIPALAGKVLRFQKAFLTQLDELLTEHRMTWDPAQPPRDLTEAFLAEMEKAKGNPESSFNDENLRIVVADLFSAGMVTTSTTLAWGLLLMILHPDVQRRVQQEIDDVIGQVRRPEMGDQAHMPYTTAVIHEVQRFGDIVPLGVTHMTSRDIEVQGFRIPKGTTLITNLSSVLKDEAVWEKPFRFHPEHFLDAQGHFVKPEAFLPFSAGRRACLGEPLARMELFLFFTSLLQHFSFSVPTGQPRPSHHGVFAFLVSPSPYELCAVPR

## CN(C)CCCN1c2ccccc2CCc2ccccc21 [IMIPRAMINE]
[1]
  fold change (FC): 0.7
[2]
  fold change (FC): 0.2
[3]
  fold change (FC): 0.3

## CNCCC(Oc1ccc(C(F)(F)F)cc1)c1ccccc1 (centres undefined) [FLUOXETINE]
[4]
  fold change (FC): 0.6
[5]
  fold change (FC): 0.7
[6]
  fold change (FC): 0.7

## OC(CCN1CCCCC1)(c1ccccc1)C1CC2C=CC1C2 (centres undefined) [BIPERIDEN]
[7]
  fold change (FC): 1.6
[8]
  fold change (FC): 3.6

## O=c1n(CCCN2CCN(c3cccc(Cl)c3)CC2)nc2ccccn12 [TRAZODONE]
[9]
  FC: 1
[10]
  fold change (FC): 23.2
[11]
  fold change (FC): 34.4

## Clc1ccccc1C(c1ccccc1)(c1ccccc1)n1ccnc1 [CLOTRIMAZOLE]
[12]
  fold change (FC): 1.1
[13]
  fold change (FC): 0.9

## C=C(CC)C(=O)c1ccc(OCC(=O)O)c(Cl)c1Cl [ETHACRYNIC ACID]
[14]
  fold change (FC): 0.7
[15]
  FC: 3.7
[16]
  fold change (FC): 2.7

## CC(C)NNC(=O)c1ccncc1 [IPRONIAZID]
[9]
  FC: 1
[17]
  fold change (FC): 2.2
[18]
  fold change (FC): 2.6
